Where two headings read alike, the source gives them in different places.
How the values were obtained:
[1] = system: human glioblastoma (U251); test: SRB cytotoxicity assay, U251; type: cell-based; settings: U-251, SRB method, 48 h exposure, ± SD, read-out: Cell Line IC50 U251
Experimental: (§1) Cytotoxicity was evaluated based on the percentage of cell growth inhibition. The cancer cell lines were obtained from the National Cancer Institute (NCI, Bethesda, MD). The study utilized human cancer cell lines derived from central nervous system glia (U251), prostate (PC-3), leukemia (K562), colon (HCT-15), breast (MCF-7), and lung (SKLU). Each cell line was maintained in RPMI 1640 medium supplemented with fetal bovine serum (10%), L-glutamate (2.0 mM), 10,000 units/mL penicillin G, 10,000 […] sulfate, […] amphotericin B and 1% nonessential amino acids. Cytotoxicity was assessed by treating cancerous cells with the extract, the saponin fraction, and the major isolated compounds, all of which were solubilized in ultrapure water (18.2 MΩ) and tested at a concentration of 25 μg/mL. For the determination of IC50 values, the same cancer cell lines were evaluated and had the same treatment, while the range of concentrations was 25, 12.5, 6.5, 5.0, 2.5, and 1.25 μg/mL in triplicate wells for each concentration; commercially formulated mitoxantrone, used as a water-soluble chemotherapeutic drug, was used as a positive control, and ultrapure water was used as a negative control. The resulting data obtained from the assay for each cell line were analyzed using nonlinear regression to calculate IC50 using GraphPad Prism 10.5.0 (San Diego, CA, USA). The percentage of cell growth inhibition was determined by using the protein-binding dye sulforhodamine B (SRB) in a microculture assay. Cells were harvested from culture flasks and seeded into 96-well plates at a density of 5,000 to 10,000 cells per well, maintaining the same temperature and humidity conditions as during culture incubation. The test compounds were then added, and cells were exposed for 48 h. After incubation, cells were fixed in situ by adding 50 μL of cold 50% trichloroacetic acid and incubating at 4 °C for 1 h. […] The plates were then shaken for 10 min, and absorbance was measured at 515 nm using a microplate spectrophotometer.

[2] = system: human prostatic adenocarcinoma (PC-3); test: SRB cytotoxicity assay, PC-3; type: cell-based; settings: SRB method, 48 h exposure, ± SD, read-out: Cell Line IC50 PC-3
Experimental: as §1

[3] = system: human chronic myelogenous leukemia (K562); test: SRB cytotoxicity assay, K562; type: cell-based; settings: SRB method, 48 h exposure, ± SD, read-out: Cell Line IC50 K562
Experimental: as §1

[4] = system: human colorectal adenocarcinoma (HCT-15); test: SRB cytotoxicity assay, HCT-15; type: cell-based; settings: SRB method, 48 h exposure, ± SD, read-out: Cell Line IC50 HCT-15
Experimental: as §1

[5] = system: human mammary adenocarcinoma (MCF-7); test: SRB cytotoxicity assay, MCF-7; type: cell-based; settings: MCF7, SRB method, 48 h exposure, ± SD, read-out: Cell Line IC50 MCF-7
Experimental: as §1

[6] = system: human lung adenocarcinoma (SKLU-1); test: SRB cytotoxicity assay, SKLU-1; type: cell-based; settings: SK-LU-1, SRB method, 48 h exposure, ± SD, read-out: Cell Line IC50 SKLU-1
Experimental: as §1

[7] = system: cancer cell lines U251, PC-3, K562, HCT-15, MCF-7, SKLU-1; test: SRB cytotoxicity assay, panel of six cancer cell lines; type: cell-based, human; settings: for growth inhibition (cytotoxic activity) of cancer cell lines: 25 μg/mL, six cell lines, result in words (Figure 1)
Experimental: Cytotoxicity was evaluated based on the percentage of cell growth inhibition. The cancer cell lines were obtained from the National Cancer Institute (NCI, Bethesda, MD). The study utilized human cancer cell lines derived from central nervous system glia (U251), prostate (PC-3), leukemia (K562), colon (HCT-15), breast (MCF-7), and lung (SKLU). Each cell line was maintained in RPMI 1640 medium supplemented with fetal bovine serum (10%), L-glutamate (2.0 mM), 10,000 units/mL penicillin G, […] streptomycin sulfate, 25 mg/mL amphotericin B and 1% nonessential amino acids. Cytotoxicity was assessed by treating cancerous cells with the extract, the saponin fraction, and the major isolated compounds, all of which were solubilized in ultrapure water (18.2 MΩ) and tested at a concentration of 25 μg/mL. For the determination of IC50 values, the same cancer cell lines were evaluated and had the same treatment, while the range of concentrations was 25, 12.5, 6.5, 5.0, 2.5, and 1.25 μg/mL in triplicate wells for each concentration; commercially formulated mitoxantrone, used as a water-soluble chemotherapeutic drug, was used as a positive control, and ultrapure water was used as a negative control. The resulting data obtained from the assay for each cell line were analyzed using nonlinear regression to calculate IC50 using GraphPad Prism 10.5.0 (San Diego, CA, USA). The percentage of cell growth inhibition was determined by using the protein-binding dye sulforhodamine B (SRB) in a microculture assay. Cells were harvested from culture flasks and seeded into 96-well plates at a density of 5,000 to 10,000 cells per well, maintaining the same temperature and humidity conditions as during culture incubation. The test compounds were then added, and cells were exposed for 48 h. After incubation, cells were fixed in situ by adding 50 μL of cold 50% trichloroacetic acid and incubating at 4 °C for 1 h. The plates were then washed with Milli-Q water, air-dried at room temperature, and stained with a 0.4% SRB solution. Excess SRB was removed by washing with 1% aqueous acetic acid. The plates were air-dried, and the bound dye was solubilized with 100 μL of a 10 mM unbuffered Tris base. The plates were then shaken for 10 min, and absorbance was measured at 515 nm using a microplate spectrophotometer.

[8] = Homo sapiens, span over the evaluated cell lines, SRB method, read-out: IC50 values across the tested cancer cell lines

Row | SMILES | IC50 [1] [nM] | IC50 [2] [nM] | IC50 [3] [nM] | IC50 [4] [nM] | IC50 [5] [nM] | IC50 [6] [nM] | IC50 [7, 8] [nM] | growth inhibition (cytotoxic activity) of cancer cell lines ([7]; SRB method) | IC50 ([7]; Homo sapiens, span over MCF-7 and SKLU-1 cell lines, read-out: IC50 values against MCF-7 and SKLU-1) [nM] | IC50 ([7]; span over the evaluated cell lines, SRB method, read-out: IC50 values across the tested cancer cell lines) [nM]
1 | O=C1c2c(O)ccc(O)c2C(=O)c2c(NCCNCCO)ccc(NCCNCCO)c21 [Mitoxantrone, reference compound] | 550 ± 40 | 630 ± 40 | 650 ± 20 | 750 ± 40 | 720 ± 10 | 1160 ± 150 | 550 to 1160 | – | – | –
2 | CC(=O)OC(C)(C)CCCC1(C)OC(=O)C23C(O)C=C4C(CCC5C4(C)CCC(OC4OCC(OS(=O)(=O)O)C(O)C4OC4OC(C)C(O)C(O)C4O)C5(C)C)C2(C)CCC13O [Inornatoside A (1), 25-acetoxy-3-O-(β-D-quinovopyranosyl-(1→2)-4-O-sodiumsulfate-β-D-xylopyranoside)-holost-9(11)-ene-3β,12α,17α-triol] | 3530 ± 130 | 5350 ± 10 | 4240 ± 20 | 4690 ± 10 | > 50000 | 3650 ± 20 | 3530 to 5350 | significantly more active than holothurin B (7) | – | –
3 | COC1C(O)C(CO)OC(OC2C(O)C(CO)OC(OC3C(C)OC(OC4C(OC5CCC6(C)C7=CC(O)C89C(=O)OC(C)(CCCC(C)(C)OC(C)=O)C8(O)CCC9(C)C7CCC6C5(C)C)OCC(OS(=O)(=O)O)C4O)C(O)C3O)C2O)C1O [Inornatoside B (2), 25-acetoxy-3-O-(3-O-methyl-β-D-glucopyranosyl-(1→3)-β-D-glucopyranosyl-(1→4)-β-D-quinovopyranosyl-(1→2)-4-O-sodiumsulfate-β-D-xylopyranoside)-holost-9(11)-ene-3β,12α,17α-triol] | 540 ± 10 | 490 ± 10 | 480 ± 10 | 1040 ± 10 | 470 ± 40 | 500 ± 10 | 470 to 1040 | significantly more active than holothurin B (7) | 470 to 500 | ~500
4 | CC1OC(OC2C(OC3CCC4(C)C5=CC(O)C67C(=O)OC(C)(C8CCC(C)(C)O8)C6(O)CCC7(C)C5CCC4C3(C)C)OCC(OS(=O)(=O)O)C2O)C(O)C(O)C1O (centres unmarked) [holothurin B (7), holothurin B] | – | – | – | – | – | – | – | did not exhibit high sensitivity | – | –

From article PMC12560079, “Cytotoxic Triterpene Glycosides from Mexican Sea Cucumber Holothuria inornata” (Journal of Natural Products, 2025)
